What was measured:
Type in all cases: cell-based
human GABAC-ρ1 receptor [1] = target: T1, human GABAC-ρ1 receptor (Homo sapiens, UniProt P24046); assay: Voltage-clamp: inhibition of GABA- and SCC-tau-induced currents by TPMPA and picrotoxin
T1 construct: expressed in transfected cells; host or cells: Xenopus laevis oocytes (mRNA injection)
Procedure: (§1) All the animals were handled in accordance with guidelines of the National Institutes of Health Guide for Care and Use of Laboratory Animals and with the approval of the Institutional Animal Care and Use Committee of the National University of Mexico. We used Ethyl 3-aminobenzoate methanesulfonate (MS-222) at 0.17% for 30 min, to anesthetize the Xenopus laevis frogs. The oocytes were manually removed and enzymatically defolliculated at room temperature using collagenase type I (0.3 μg/μl) for 45 min. Later, oocytes were kept in Barth’s medium (in mM): 88, NaCl; 1, KCl; 0.33, […]; 0.41, CaCl2; 0.82, MgSO4; 2.4, NaHCO3; 5, HEPES; pH 7.4 and 0.1 mg/ml gentamicin sulfate. After 24 h, 0.5 μg/μl of human GABAC-ρ1R mRNA was injected in vegetal hemisphere of the oocyte, and electrophysiological recordings were obtained 2–3 days after injection.
(§2) Membrane currents elicited by GABA and SCC-tau were recorded using the two-microelectrode voltage-clamp technique. Oocytes were placed in a chamber, with a volume of 500 μl, and impaled with two microelectrodes previously filled with 3 M KCl (0.5–2.5 MΩ) and clamped at − 60 mV. […] All recordings were done at 20–23 °C in a chamber continuously perfused at 5–10 ml/min of Ringer solution (in mM): 115, NaCl; 2, KCl; 1.8, CaCl2; 5, HEPES, pH 7.4. All drugs were purchased from SIGMA-ALDRICH (San Louis Missouri, USA). […] The pH of all solutions was adjusted to 7.4.
(§3) Results are reported as mean ± S.E. of the values obtained from several cells, each value being the average of measurements in different cells. Data from each experiment were collected from at least seven oocytes. Agonist concentration–response curves were constructed by measuring the maximum response evoked by each agonist concentration. […] The half-inhibitory concentration (IC50) of Homo was estimated by fitting the following equation: A=Amax/(1+10^[[agonist]-logEC50) . Differences among groups were statistically analyzed by ANOVA and Tukey–Kramer post-test, and were considered significant when P < 0.05. Control responses to GABA were obtained before and after each drug application to account for possible shifts in the amplitude of the control current. To determine the time constants for the activation (τact) and deactivation (τdeac) of GABA-, Homo- and Hypo-currents responses, a decay function of the form: I(τ) = exp(− t/τ d) + C, where I is the current and t is time, was fit to the experimental data (Origin 6.0 software; Northampton, MA). Differences between groups were statistically analyzed by ANOVA and a Tukey–Kramer post-test, and were considered significant at the level P < 0.05.

human GABAC-ρ1 receptor [2] = target: T1, human GABAC-ρ1 receptor; assay: Two-microelectrode voltage-clamp: currents activated by GABA or SCC-tau in oocytes expressing GABAC-ρ1R; conditions: for Hill coefficient (nH) / EC50: agonist alone; for Hill coefficient (nH): dose-response relationship; for EC50: Xenopus laevis oocytes clamped at −60 mV; for activation time of the currents (τact) / deactivation time (τdeac): currents activated by GABA, Hypo or Homo
Procedure: as §1
as §2, with “Oocytes” for “Membrane currents elicited by GABA and SCC-tau were recorded using the two-microelectrode voltage-clamp technique. Oocytes”
Results are reported as mean ± S.E. of the values obtained from several cells, each value being the average of measurements in different cells. Data from each experiment were collected from at least seven oocytes. Agonist concentration–response curves were constructed by measuring the maximum response evoked by each agonist concentration. […] The half-inhibitory concentration (IC50) of Homo was estimated by fitting the following equation: A=Amax/(1+10^[[agonist]-logEC50) . Differences among groups were statistically analyzed by ANOVA and Tukey–Kramer post-test, and were considered significant when P < 0.05. […] Differences between groups were statistically analyzed by ANOVA and a Tukey–Kramer post-test, and were considered significant at the level P < 0.05.

human GABAC-ρ1 receptor [3] = target: T1, human GABAC-ρ1 receptor; assay: Voltage-clamp: modulation of GABA-induced currents by co-applied SCC-tau; conditions: for IC50: read-out: IC50 (decrease of GABA-activated current); for EC50: EC50 (potentiation of GABA current)
Procedure: as §1, §2, §3

[4] = receptor activated by 3 µM GABA
[5] = receptor activated by 70 µM Homo
[6] = receptor activated by 3 mM Hypo

T1 sequence (P24046 22-479): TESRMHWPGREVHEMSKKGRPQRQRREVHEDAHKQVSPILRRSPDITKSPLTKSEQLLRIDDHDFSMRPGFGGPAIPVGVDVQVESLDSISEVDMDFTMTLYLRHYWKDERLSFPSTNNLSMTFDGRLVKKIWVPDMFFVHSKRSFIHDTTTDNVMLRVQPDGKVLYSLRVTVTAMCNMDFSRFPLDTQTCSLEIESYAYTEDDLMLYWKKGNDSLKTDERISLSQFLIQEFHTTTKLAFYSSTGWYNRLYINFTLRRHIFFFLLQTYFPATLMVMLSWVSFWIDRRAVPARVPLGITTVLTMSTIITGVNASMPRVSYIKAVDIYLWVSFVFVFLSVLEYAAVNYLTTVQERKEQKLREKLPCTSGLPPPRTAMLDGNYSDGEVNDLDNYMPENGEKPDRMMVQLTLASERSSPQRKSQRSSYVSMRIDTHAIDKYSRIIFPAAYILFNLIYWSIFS

Row | Hill coefficient (nH) (human GABAC-ρ1 receptor [2]) | activation time of the currents (τact) (human GABAC-ρ1 receptor [2]) [min] | deactivation time (τdeac) (human GABAC-ρ1 receptor [2]) [min] | Compound | IC50 (human GABAC-ρ1 receptor [1]; [4]) [µM] | IC50 (human GABAC-ρ1 receptor [1]; [5]) [µM] | IC50 (human GABAC-ρ1 receptor [1]; [6]) [µM] | EC50 (human GABAC-ρ1 receptor [2]) [µM] | further results
1 |  |  |  | CP(=O)(O)C1=CCNCC1 [TPMPA, Methyl(1,2,5,6-tetrahydropyridine-4-yl) phosphinic acid] | 1.2 ± 0.1 | 1.4 ± 0.1 | 2 ± 0.2 |  | 
2 | 1.0 | 1.8 ± 0.2 | 6.7 ± 2.2 | NCCCS(=O)(=O)O [Homo, 3-Aminopropane-1-sulfonic acid] |  |  |  | 70 ± 1.1 | IC50 (human GABAC-ρ1 receptor [3]; co-applied with 1.5 µM GABA): 40 ± 1 µM; IC50 (human GABAC-ρ1 receptor [3]; co-applied with 3 µM GABA): 90 ± 1.5 µM; IC50 (human GABAC-ρ1 receptor [3]; co-applied with 6 µM GABA): 410 ± 2.9 µM
3 |  |  |  | picrotoxin | 100 ± 0.1 | 105 ± 0.3 | 100 ± 0.8 |  | 
4 |  |  |  | O=S(=O)(O)CCO [IA, 2-hydroxyethanesulfonic acid] |  |  |  |  | activation of current (effect on receptor) (human GABAC-ρ1 receptor [2]; compound perfused alone at the concentrations tested): did not show any affect; effect on GABA-induced currents (human GABAC-ρ1 receptor [3]; co-application with GABA, data not shown): did not observe any effect
5 | 1.5 | 1 ± 0.2 | 1.7 ± 0.5 | NCCCC(=O)O [GABA, γ-aminobutyric acid] |  |  |  |  | 

Row | Compound | Hill coefficient (nH) (human GABAC-ρ1 receptor [2]) | activation time of the currents (τact) (human GABAC-ρ1 receptor [2]) [min] | deactivation time (τdeac) (human GABAC-ρ1 receptor [2]) [min] | IC50 (human GABAC-ρ1 receptor [1]; [4]) [µM] | IC50 (human GABAC-ρ1 receptor [1]; [5]) [µM] | IC50 (human GABAC-ρ1 receptor [1]; [6]) [µM] | EC50 (human GABAC-ρ1 receptor [2]) [µM] | further results
6 | NCCS(=O)O [Hypo, 2-Aminoethanesulfinic acid] | 2.2 | 1.5 ± 0.1 | 3.4 ± 1.1 |  |  |  | 3000 ± 1500 | EC50 (human GABAC-ρ1 receptor [3]; co-applied with 1.5 µM GABA): 87 ± 1.5 µM; EC50 (human GABAC-ρ1 receptor [3]; co-applied with 3 µM GABA): 170 ± 1.7 µM; EC50 (human GABAC-ρ1 receptor [3]; co-applied with 6 µM GABA): 480 ± 2.1 µM

— article PMC6076408, “Differential modulation of human GABAC-ρ1 receptor by sulfur-containing compounds structurally related to taurine” (BMC Neuroscience, 2018)
